Literature values, collected in publication PMC8541353, “A Novel Phenylpyrrolidine Derivative: Synthesis and Effect on Cognitive Functions in Rats with Experimental Ishemic Stroke” (Molecules, 2021).

Conditions: cited from earlier work

Row | SMILES | Literature Report of BBB Permeability
1 | NC(=O)CN1CC(O)CC1=O (centres unmarked) [Oxiracetam] | Low [20]
2 | CC[C@@H](C(N)=O)N1C[C@H](C=C(F)F)CC1=O [Seletracetam] | Very good [19]
